# Data from patent publication US20200239530A1, “COMPOUNDS AND METHODS OF MODULATING PROTEIN DEGRADATION” (Vividion Therapeutics, Inc., priority 2017, published 2020).
# Assays:
# Format in all cases: binding
# [1] = target: T1, cysteine residue illustrated in Table 1A or Table 2A (Homo sapiens, UniProt O60826); assay: Competitive cysteine profiling of cell lysate with desthiobiotin iodoacetamide probe (96-well sample prep); details: UniProt O60826; 100 uM
# T1 construct: Cells were resuspended in cold PBS on ice and sonicated with a probe sonicator to achieve lysis; endogenous in cells
# Procedure, shortened: (§1)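 Competitive profiling: compound and lysate (5 mg/ml protein) incubated 1 h at 25 °C before a 1 h, 25 °C desthiobiotin iodoacetamide probe step. Proteins were acetone-precipitated, reduced, alkylated and trypsinized; streptavidin-captured labelled peptides were eluted for MS analysis.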
# [2] = target: T2, cysteine residue illustrated in Table 1A or Table 2A (Homo sapiens, UniProt O94941); assay: as above; details: UniProt O94941
# T2 construct: Cells were resuspended in cold PBS on ice and sonicated with a probe sonicator to achieve lysis; endogenous in cells
# Procedure, shortened: as §1
# [3] = target: T3, cysteine residue illustrated in Table 1A or Table 2A (Homo sapiens, UniProt Q5T6F0); assay: as above; details: UniProt Q5T6F0; 100 uM
# T3 construct: Cells were resuspended in cold PBS on ice and sonicated with a probe sonicator to achieve lysis; endogenous in cells
# Procedure, shortened: as §1
# [4] = target: T4, cysteine residue illustrated in Table 1A or Table 2A (Homo sapiens, UniProt Q6P1J9); assay: as above; details: UniProt Q6P1J9; 100 uM
# T4 construct: Cells were resuspended in cold PBS on ice and sonicated with a probe sonicator to achieve lysis; endogenous in cells
# Procedure, shortened: as §1
# [5] = target: T5, cysteine residue illustrated in Table 1A or Table 2A (Homo sapiens, UniProt Q86UW9); assay: as above; details: UniProt Q86UW9; 100 uM
# T5 construct: Cells were resuspended in cold PBS on ice and sonicated with a probe sonicator to achieve lysis; endogenous in cells
# Procedure, shortened: as §1
# [6] = target: T6, cysteine residue illustrated in Table 1A or Table 2A (Homo sapiens, UniProt Q8N3P4); assay: as above; details: UniProt Q8N3P4
# T6 construct: Cells were resuspended in cold PBS on ice and sonicated with a probe sonicator to achieve lysis; endogenous in cells
# Procedure, shortened: as §1
# [7] = target: T7, cysteine residue illustrated in Table 1A or Table 2A (Homo sapiens, UniProt Q8N9I9); assay: as above; details: UniProt Q8N9I9; 100 uM
# T7 construct: Cells were resuspended in cold PBS on ice and sonicated with a probe sonicator to achieve lysis; endogenous in cells
# Procedure, shortened: as §1
# [8] = target: T8, cysteine residue illustrated in Table 1A or Table 2A (Homo sapiens, UniProt Q8NHY2); assay: as above; details: UniProt Q8NHY2; 100 uM
# T8 construct: Cells were resuspended in cold PBS on ice and sonicated with a probe sonicator to achieve lysis; endogenous in cells
# Procedure, shortened: as §1
# [9] = target: T9, cysteine residue illustrated in Table 1A or Table 2A (Homo sapiens, UniProt Q8TEB1); assay: as above; details: UniProt Q8TEB1; 100 uM
# T9 construct: Cells were resuspended in cold PBS on ice and sonicated with a probe sonicator to achieve lysis; endogenous in cells
# Procedure, shortened: as §1
# [10] = target: T10, cysteine residue illustrated in Table 1A or Table 2A (Homo sapiens, UniProt Q96GG9); assay: as above; details: UniProt Q96GG9; 100 uM
# T10 construct: Cells were resuspended in cold PBS on ice and sonicated with a probe sonicator to achieve lysis; endogenous in cells
# Procedure, shortened: as §1
# [11] = test system: cysteine residue illustrated in Table 1A or Table 2A; assay: as above; details: for KB03_100 uM_percent_inhibition: KB03 at 100 uM; for KB02_100 uM_percent_inhibition: KB02 at 100 uM
# Procedure, shortened: as §1
# [12] = target: T11, MAP1B Microtubule-associated protein 1B (Homo sapiens, UniProt P46821); assay: Cysteine liganding, probe competition
# T11 construct: Cells were resuspended in cold PBS on ice and sonicated with a probe sonicator to achieve lysis; endogenous in cells
# Procedure, shortened: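 Probe competition in native proteome: 5 mg/ml lysate, compound 1 hr 25° C, then desthiobiotin iodoacetamide (10 mM stock) 1 hr 25° C; acetone ppt, urea/DTT reduction, iodoacetamide alkylation, trypsin, streptavidin pull-down.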
# [13] = target: T12, cysteine residue illustrated in Table 1A or Table 2A (Homo sapiens, UniProt Q8WV16); assay: Competitive cysteine profiling of cell lysate with desthiobiotin iodoacetamide probe (96-well sample prep); details: UniProt Q8WV16; 100 uM
# T12 construct: Cells were resuspended in cold PBS on ice and sonicated with a probe sonicator to achieve lysis; endogenous in cells
# Procedure, shortened: as §1
smiles,measurement,setting,value
O=C(CCl)Nc1cc(C(F)(F)F)cc(C(F)(F)F)c1 [KBO3],KB03_100 uM_percent_inhibition,[1],7%
same,KB03_100 uM_percent_inhibition,[2]; KB03 100 uM,63%
same,KB03_100 uM_percent_inhibition,[3],11%
same,KB03_100 uM_percent_inhibition,[4],24%
same,KB03_100 uM_percent_inhibition,[5],8%
same,KB03_100 uM_percent_inhibition,[6]; KB03 100 uM,44%
same,KB03_100 uM_percent_inhibition,[7],10%
same,KB03_100 uM_percent_inhibition,[8],27%
same,KB03_100 uM_percent_inhibition,[9],43%
same,KB03_100 uM_percent_inhibition,[10],26%
same,KB03_100 uM_percent_inhibition,"[11]; target protein = UniProt accession, one row per cysteine site, UniProt Q9P0J7",90%
same,KB03_100 uM_percent_inhibition,"[11]; target protein = UniProt accession, one row per cysteine site, UniProt Q08380",69%
same,Liganded,"[12]; MAP1B Res# 382, uniprot P46821",YES
same,100 ave,[12]; uniprot P46821,37.5
same,500 ave,[12]; uniprot P46821,75.17
same,500 Max,"[12]; uniprot P46821, in % (unit assumed)",75.17
same,100 Max,"[12]; uniprot P46821, unit assumed",37.5%
COc1ccc2c(c1)CCCN2C(=O)CCl [KB02],KB02_100 uM_percent_inhibition,[5],28%
same,KB02_100 uM_percent_inhibition,[7],8%
same,KB02_100 uM_percent_inhibition,[13],16%
same,KB02_100 uM_percent_inhibition,"[11]; c0 = UniProt of target protein, one grid row per cysteine site",24%
same,KB02_100 uM_percent_inhibition,"[11]; target protein = UniProt accession, one row per cysteine site",24%
same,KB02_100 uM_percent_inhibition,[11]; target protein = UniProt id in c0 of the row (one row per cysteine site),24%
C=CC(=O)N(c1ccccc1)c1ccc(Br)cc1 [KB05],KB05_100 uM_percent_inhibition,[1],22%
same,KB05_100 uM_percent_inhibition,[2]; KB05 100 uM,40%
same,KB05_100 uM_percent_inhibition,[3],31%
same,KB05_100 uM_percent_inhibition,[4],33%
same,KB05_100 uM_percent_inhibition,[6]; KB05 100 uM,55%
same,KB05_100 uM_percent_inhibition,[8],43%
same,KB05_100 uM_percent_inhibition,[9],38%
same,KB05_100 uM_percent_inhibition,[13],26%
same,KB05_100 uM_percent_inhibition,[10],10%
